Test results: patent publication US4470977A, “Antiemetic and antipsychotic agents” (Adria Laboratories, Inc., priority 1982, dated 1984)

Assays:
dopaminergic receptors = experiment: Antagonism to Apomorphine Induced Climbing Behavior; type: in vivo, mouse; conditions: for Antagonism (20 min. After): 20 minutes after 1 mg/kg s.c. apomorphine, doses 6.25 to 100 mg/kg; for Antagonism (20 min. After) / ED50: mouse; for ED50: antagonism to apomorphine (1 mg/kg s.c.) induced climbing behavior, p.o.; for apomorphine induced climbing behavior (in words): indicator of antipsychotic activity
Excerpt: The effect of each of the compounds in Table 1 on apomorphine induced climbing behavior related to stimulation of dopaminergic receptors was studied under the experimental conditions described by Costetin et al, 1975, Rapid and Dissociated Changes in Sensitivities of Different Dopamine Receptors in Mouse Brain, Nature, 257, 405.

mammary gland = experiment: Effect of Sulpiride and Sulpiride Analogs on Mammary Gland Development in Female Sprague Dawley Rats; type: in vivo; conditions: for Number of Animals with Mammary Hypertrophy: n = 6 female Sprague Dawley rats, 0.02% drug in chow, 14 days
Excerpt: The animals were individually caged during the 14-day study, with rat chow and tap water permitted ad libitum. The rat chow fed to the control group contained no drug, while that fed to the other groups contained 0.02% drug. Food cups were weighed and refilled on day 7 during the study. On day 14 of the study, the animals were sacrificed by asphyxiation in a CO2 atmosphere and then were weighed. The abdominal skin was cut along the midline from the pelvis to the sternum and separated from underlying tissues by blunt dissection. Each animal was then examined grossly for mammary gland enlargement.

[1] = test system: medullary chemoreceptor trigger zone (CTZ); experiment: Antiemetic Screen: Antagonism to Apomorphine Induced Emesis In the Dog; type: in vivo, beagle dogs; set-up: key to Antagonism to Apomorphine Induced Emesis: If both animals receiving a particular treatment are protected (i.e., no emetic response within one hour after apomorphine), the test compound is defined as active (+); conditions: for Antagonism to Apomorphine Induced Emesis: 10 mg/kg sc, beagle dogs, 0.1 mg/kg sc apomorphine HCl one hour later
Method: Each compound is administered subcutaneously (sc) to two beagle dogs at 10.0 mg/kg. One hour following administration of the test compound, each animal receives 0.1 mg/kg, sc, of apomorphine HCl. Apomorphine consistently evokes an immediate emetic response through direct dopaminergic interaction at the medullary chemoreceptor trigger zone (CTZ). Antiemetic compounds which act at the CTZ and/or the midbrain vomiting center will block this effect of apomorphine. If both animals receiving a particular treatment are protected (i.e., no emetic response within one hour after apomorphine), the test compound is defined as active (+). In instances where protection is observed in only 1 of the 2 animals, the experiment is repeated in two additional animals and the results of the two tests are combined. Compounds which protect 3 out of 4 animals are then defined as active. The results are shown in Table 4 below and indicate that each of the invention compounds is active against emesis.

dopamine receptors = conditions: cited from earlier work

Structure (SMILES) | Antagonism (20 min. After) (dopaminergic receptors) | Number of Animals with Mammary Hypertrophy (mammary gland) [animals] | Antagonism to Apomorphine Induced Emesis [1] | ED50 (dopaminergic receptors) | apomorphine induced climbing behavior (in words) (dopaminergic receptors) | mammary hypertrophy (in words) (mammary gland) | antiemetic effect (in words) [1] | undesirable side effect (dopamine receptors)
CCN1CCCC1CNC(=O)c1cccc(N)c1C (stereo not drawn) [Compound 11, 3-amino-N-(1-ethyl-2-pyrrolidinylmethyl)-2-methylbenzamide] | No | 0 | + | – | – | – | – | –
CCN1CCCC1CNC(=O)c1cccc(C)c1[N+](=O)[O-] (stereo not drawn) [Compound 8, N-(1-ethyl-2-pyrrolidinylmethyl)-3-methyl-2-nitrobenzamide] | No | 0 | + | – | – | – | – | –
CCN1CCCC1CNC(=O)c1cccc(Cl)c1OC (stereo not drawn) [Compound 1, 3-chloro-N-(1-ethyl-2-pyrrolidinylmethyl)-2-methoxybenzamide] | Yes | 0 | + | 26.8 (20.7-38.5) mg/kg p.o. | suppress apomorphine induced climbing behavior | without mammary hypertrophy | possess an antiemetic effect | –
CCN1CCCC1CNC(=O)c1cc(Cl)ccc1OC (stereo not drawn) [Compound 3, 5-chloro-N-(1-ethyl-2-pyrrolidinylmethyl)-2-methoxybenzamide] | Yes | 0 | + | – | suppress apomorphine induced climbing behavior | without mammary hypertrophy | possess an antiemetic effect | –
CCN1CCCC1CNC(=O)c1cc(S(N)(=O)=O)ccc1OC (stereo not drawn) [Sulpiride, 2-methoxy-N-(1-ethyl-2-pyrrolidinylmethyl)-5-sulfamoyl benzamide, reference compound] | Yes | 6 | – | 24.3 (19.3-32.4) mg/kg p.o. | – | consistently produce mammary hypertrophy | – | mammary hypertrophy
CCN1CCCC1CNC(=O)c1ccc(C)cc1OC (stereo not drawn) [Compound 5, N-(1-ethyl-2-pyrrolidinylmethyl)-2-methoxy-4-methylbenzamide] | Yes | 0 | + | – | – | – | – | –
CCN1CCCC1CNC(=O)c1cc(C)ccc1OC (stereo not drawn) [Compound 6, N-(1-ethyl-2-pyrrolidinylmethyl)-2-methoxy-5-methylbenzamide] | Yes | 0 | + | – | – | – | – | –
CCN1CCCC1CNC(=O)c1ccccc1OC (stereo not drawn) [Compound 4, N-(1-ethyl-2-pyrrolidinylmethy)-2-methoxybenzamide] | Yes | 0 | + | – | suppress apomorphine induced climbing behavior | without mammary hypertrophy | possess an antiemetic effect | –
CCN1CCCC1CNC(=O)c1cccc(C)c1N (stereo not drawn) [Compound 10, 2-amino-N-(1-ethyl-2-pyrrolidinylmethyl)-3-methylbenzamide] | No | 0 | + | – | – | – | – | –
CCN1CCCC1CNC(=O)c1ccccc1N (stereo not drawn) [Compound 9, 2-amino-N-(1-ethyl-2-pyrrolidinylmethyl)-benzamide] | Yes | 0 | + | – | suppress apomorphine induced climbing behavior | without mammary hypertrophy | possess an antiemetic effect | –
CCN1CCCC1CNC(=O)c1ccc(Cl)cc1OC (stereo not drawn) [Compound 2, 4-chloro-N-(1-ethyl-2-pyrrolidinylmethyl)-2-methoxybenzamide] | Yes | 0 | + | – | suppress apomorphine induced climbing behavior | without mammary hypertrophy | possess an antiemetic effect | –
CCN1CCCC1CNC(=O)c1cccc(Cl)c1C (stereo not drawn) [Compound 13, 3-chloro-N-(1-ethyl-2-pyrrolidinylmethyl)-2-methylbenzamide] | No | 0 | + | – | – | – | – | –
CCN1CCCC1CNC(=O)c1cccc([N+](=O)[O-])c1OC (stereo not drawn) [Compound 7, N-(1-ethyl-2-pyrrolidinylmethyl)-2-methoxy-3-nitrobenzamide] | Yes | 0 | + | – | – | – | – | –
CCN1CCCC1CNC(=O)c1cc(Cl)ccc1Cl (stereo not drawn) [Compound 12, 2,5-dichloro-N-(1-ethyl-2-pyrrolidinylmethyl)-benzamide] | Yes | 0 | + | – | suppress apomorphine induced climbing behavior | without mammary hypertrophy | possess an antiemetic effect | –
